Results: ChEMBL document CHEMBL1140618, “3D-QSAR and molecular docking studies on benzothiazole derivatives as Candida albicans N-myristoyltransferase inhibitors” (Eur J Med Chem, 2007)

Biological target: T1, Glycylpeptide N-tetradecanoyltransferase (Candida albicans (strain SC5314 / ATCC MYA-2876) (Yeast), UniProt P30418)
T1 sequence (P30418 whole entry): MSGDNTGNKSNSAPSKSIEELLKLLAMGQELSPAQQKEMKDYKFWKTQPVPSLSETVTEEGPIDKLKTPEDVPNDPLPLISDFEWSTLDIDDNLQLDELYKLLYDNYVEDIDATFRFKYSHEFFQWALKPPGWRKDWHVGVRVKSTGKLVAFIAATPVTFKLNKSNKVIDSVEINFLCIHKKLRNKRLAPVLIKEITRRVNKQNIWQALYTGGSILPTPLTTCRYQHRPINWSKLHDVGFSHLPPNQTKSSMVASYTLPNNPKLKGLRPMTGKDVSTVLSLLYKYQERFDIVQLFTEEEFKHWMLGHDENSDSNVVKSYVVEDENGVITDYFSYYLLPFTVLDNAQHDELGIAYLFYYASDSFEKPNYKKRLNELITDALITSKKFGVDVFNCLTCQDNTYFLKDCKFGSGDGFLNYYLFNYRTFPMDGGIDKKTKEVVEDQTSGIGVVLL
Experiment: Inhibition of Candida albicans N-myristoyltransferse

Row | Structure (SMILES) | IC50
1 | CC(C)C(=O)Nc1nc2ccc(C(=O)NCCNCc3ccc4ccccc4c3)cc2s1 | 46 nM
2 | O=C(NCCNCc1ccc2ccccc2c1)c1ccc2nc(NC(=O)C3CCNCC3)sc2c1 | > 10000 nM
3 | O=C(NCCNCc1ccc2ccccc2c1)c1ccc2ncsc2c1 | > 10000 nM
4 | O=C(NCCNCc1ccc2ccccc2c1)c1ccc2nc(NC(=O)c3ccccn3)sc2c1 | > 10000 nM
5 | O=C(Nc1nc2ccc(NC(=O)[C@@H]3CC[C@H](NCc4ccc5ccccc5c4)C3)cc2s1)C1CCCC1 | 11 nM
6 | O=C(NCCNCc1ccc2ccccc2c1)c1ccc2nc(NC(=O)c3ccc(C(F)(F)F)cc3)sc2c1 | > 10000 nM
7 | O=C(NCCNCc1ccc2ccccc2c1)c1ccc2nc(NC(=O)c3ccc(Cl)cc3)sc2c1 | > 10000 nM
8 | O=C(Nc1nc2ccc(C(=O)N3CC(NCc4ccc5ccccc5c4)C3)cc2s1)C1CCCCC1 | 65 nM
9 | O=C(NCCCNCc1ccc2ccccc2c1)c1ccc2nc(NC(=O)C3CCCCC3)sc2c1 | 110 nM
10 | O=C(Nc1nc2ccc(NC(=O)[C@H]3CCC[C@@H](NCc4ccc5ccccc5c4)C3)cc2s1)C1CCCC1 | 0.49 nM
11 | O=C(Nc1nc2ccc(C(=O)N3CCC(NCc4ccc5ccccc5c4)C3)cc2s1)C1CCCCC1 (stereo unspecified) | 190 nM
12 | O=C(Nc1ccc2nc(NC(=O)C3CCCC3)sc2c1)C1CCCC(NCc2ccc(-c3ccccc3)cc2)C1 (stereo unspecified) | 130 nM
13 | CC(C)(C)OC(=O)Nc1nc2ccc(C(=O)NCCNCc3ccc4ccccc4c3)cc2s1 | > 10000 nM
14 | CC(C)C(=O)Nc1nc2ccc(NC(=O)C3CCCC(NCc4ccc5ccccc5c4)C3)cc2s1 (stereo unspecified) | 3.3 nM
15 | O=C(Nc1nc2ccc(C(=O)N3CCC(CNCc4ccc5ccccc5c4)CC3)cc2s1)C1CCCCC1 | 26 nM
16 | O=C(NCCNCc1ccc2ccccc2c1)c1ccc2nc(NCC3CCCCC3)sc2c1 | > 1000 nM
17 | O=C(NCCNCc1ccc2ccccc2c1)c1ccc2nc(NC(=O)c3ccccc3)sc2c1 | 160 nM
18 | CC(=O)Nc1nc2ccc(C(=O)NCCNCc3ccc4ccccc4c3)cc2s1 | > 10000 nM
19 | O=C(NCCNCc1ccc2ccccc2c1)c1ccc2nc(NC(=O)C3CCCC3)sc2c1 | 23 nM
20 | Cc1ccc(C(=O)c2oc3cccc(OCCCNCc4cccnc4)c3c2C)nc1 | 0.39 nM
21 | O=C(NCCNCc1ccc2ccccc2c1)c1ccc2nc(NC(=O)c3ccc(Cl)c(Cl)c3)sc2c1 | > 10000 nM
22 | CCC(=O)Nc1nc2ccc(C(=O)NCCNCc3ccc4ccccc4c3)cc2s1 | 130 nM
23 | COc1ccc(OC)c(C(=O)Nc2nc3ccc(C(=O)NCCNCc4ccc5ccccc5c4)cc3s2)c1 | 310 nM

Row | Structure (SMILES) | IC50
24 | O=C(NCCNCc1ccc2ccccc2c1)c1ccc2nc(NC(=O)C3CCCCC3)sc2c1 | 34 nM
25 | O=C(NCCCCNCc1ccc2ccccc2c1)c1ccc2nc(NC(=O)C3CCCCC3)sc2c1 | 74 nM
26 | O=C(CNCc1ccc2ccccc2c1)Nc1ccc2nc(NC(=O)C3CCCCC3)sc2c1 | 2300 nM
27 | O=C(Nc1nc2ccc(C(=O)N3CCC(NCc4ccc5ccccc5c4)CC3)cc2s1)C1CCCCC1 | 500 nM
28 | O=C(NCc1cccc(CNCc2ccc3ccccc3c2)c1)c1ccc2nc(NC(=O)C3CCCCC3)sc2c1 | 1900 nM
29 | O=C(CCCNCc1ccc2ccccc2c1)Nc1ccc2nc(NC(=O)C3CCCC3)sc2c1 | 15 nM
30 | O=C(NCCNCc1ccc2ccccc2c1)c1ccc2nc(NCc3ccccn3)sc2c1 | > 10000 nM
31 | O=C(Nc1ccc2nc(NC(=O)C3CCCC3)sc2c1)C1CCC(NCc2ccc3ccccc3c2)CC1 (stereo unspecified) | 34 nM
32 | O=C(NCCNCc1ccc2ccccc2c1)c1ccc2nc(NC(=O)c3cccnc3Cl)sc2c1 | > 10000 nM
33 | O=C(NCCNCc1ccc2ccccc2c1)c1ccc2nc(NC(=O)C3CCOCC3)sc2c1 | 890 nM
34 | O=C(NCCNCc1ccc2ccccc2c1)c1ccc2nc(NCc3ccccc3)sc2c1 | > 10000 nM
35 | O=C(NCCNCc1ccc2ccccc2c1)c1ccc2nc(NC(=O)C3CCC3)sc2c1 | 28 nM
36 | O=C(NCCCCCNCc1ccc2ccccc2c1)c1ccc2nc(NC(=O)C3CCCCC3)sc2c1 | 300 nM
37 | O=C(NCc1ccc(CNCc2ccc3ccccc3c2)cc1)c1ccc2nc(NC(=O)C3CCCCC3)sc2c1 | > 10000 nM
38 | O=C(Nc1nc2ccc(C(=O)N3CCCC(NCc4ccc5ccccc5c4)C3)cc2s1)C1CCCCC1 (stereo unspecified) | 210 nM
39 | Cc1c(COc2ccc(F)c(F)c2F)oc2cccc(OCCCNCc3cccnc3)c12 | 5.7 nM
40 | O=C(Nc1ccc2nc(NC(=O)C3CC3)sc2c1)C1CCCC(NCc2ccc3ccccc3c2)C1 (stereo unspecified) | 2.4 nM
41 | O=C(CCNCc1ccc(-c2ccccc2)cc1)Nc1ccc2nc(NC(=O)C3CCCC3)sc2c1 | 160 nM
42 | O=C(NCCNCc1ccc2ccccc2c1)c1ccc2nc(NC(=O)c3cnccn3)sc2c1 | 730 nM
43 | CCOC(=O)c1oc2cccc(OCCCNC(C)(C)C)c2c1C | 1700 nM
44 | Nc1nc2ccc(C(=O)NCCNCc3ccc4ccccc4c3)cc2s1 | > 10000 nM
45 | O=C(Nc1ccc2nc(NC(=O)C3CCC3)sc2c1)C1CCCC(NCc2ccc3ccccc3c2)C1 (stereo unspecified) | 2.3 nM
46 | O=C(Nc1ccc2nc(NC(=O)C3CCCCC3)sc2c1)C1CCCC(NCc2ccc3ccccc3c2)C1 (stereo unspecified) | 8.1 nM
